In US6861432B2, “Piperazine derivatives that destabilize androgen receptors” (Schering Aktiengesellschaft, priority 2001, dated 2005):

What was measured:
MaTu cells = experiment: Model 3: Proliferation of non-prostate cells, MaTu; type: cell-based, human; settings: 10 μM, 3-day treatment; percent of cell growth of solvent control
Protocol: (§1) To examine the growth-inhibiting action of test substances in cells that are not of prostatic origin, MaTu cells, MaTu/Adr cells, HaCaT cells and A431 cells were treated with test substances, whereby
(§2) Depending on the cell line, 1000-4000 cells/well were grown in RPMI 1640 medium (A431; MaTu and MaTu/Adr) or DMEM/HAM'SF12 medium (HaCaT) without phenol red with 2 mmol of L-glutamine and 10% CCS, and after a 24-hour incubation, they were treated with various concentrations of test substances diluted in culture medium. After a 3-day treatment period, the number of cells was determined by crystal violet assay, as in Model 2. The solvent control contained 0.1% ethanol.
(§3) The substances were tested at a concentration of 10 μM, and the data correspond to the proportion, in percent, of the cell growth of the solvent control. It turns out that the test substances exerted no inhibitory action on the four different cell lines or, in individual cases, only a slight inhibitory action.

CWR22 prostate cancers = experiment: Model 5: Growth of human prostate cancer xenografts in vivo, CWR22; settings: hairless mice with testosterone pellets, 2 × daily s.c. 30 mg/kg, FIG. 2
From the text: (§4) In this invention, the action of Example 117 according to the invention: 4-[2,5-dihydro-3-methyl-4-[4-[4-(methylsulfonyl)piperazin-1-yl]butyl]-2,5-dioxo-1H-pyrrol-1-yl]-2-(trifluoromethyl)benzonitrile on the tumor growth in vivo was studied by means of mouse-xenograft modules, in which the compound according to the invention was continuously administered subcutaneously.
(§5) The CWR22 tumor model [M. A. Wainstein, F. He, D. Robinson, H. J. Kung, S. Schwartz, J. M. Giaconia, N. L. Edgehouse, T. P. Pretlow, D. R. Bodner, E. D. Kursh, Cancer Res. 1994, 1; 54(23), 6049-52] is a hormone-dependent human prostate carcinoma model. The tumor model was established and further propagated by “scrial passaging” of prostate cancer tissue, which was removed during an OP in immunodeficient hairless mice. The androgen-dependent LNCaP prostate cancer model was also established from a patient tumor. This tumor model grows both in cell culture and as a xenotransplant on immunodeficient mice (Culig, Hoffman Brit. J. Cancer, 1999, 242-251). For therapy tests, 6-week-old male hairless mice (NMRI mice, M&B, Bornholdtgard, Denmark) were supplemented with testosterone pellets (12.5 mg, 90-day release; IRA, Sarasota, Fla.). Either LNCaP cells (1.5×10^6 cells) or small CWR22 tumor fragments (2×2 mm) were implanted subcutaneously in the left flank of the animals. After the tumors reached a size of 20-25 mm^2, the treatment with the invention substance was begun. [M. A. Wainstein, F. He, D. Robinson, H. J. Kung, S. Schwartz, J. M. Giaconia, N. L. Edgehouse, T. P. Pretlow, D. R. Bodner, E. D. Kursch, Cancer Res. 1994, 1; 54(23), 6049-52].

LNCaP prostate cancers = experiment: Model 5: Growth of human prostate cancer xenografts in vivo, LNCaP; settings: hairless mice with testosterone pellets, 2 × daily s.c. 30 mg/kg, FIG. 1
From the text: as §4, §5

seminal vesicles = experiment: Model 4: Antiandrogenic action on testosterone-stimulated growth of accessory sexual glands of castrated mice; type: in vivo; settings: testosterone propionate 0.03 mg/mouse, test substance 2 × 30 mg/kg s.c., 7 days, CPA 30 mg/kg s.c., bicalutamide from preceding tests
Protocol: The function and the size of accessory sexual glands (prostate and seminal vesicles) depend on androgens. In castrated animals, a growth of these (organs is induced by androgen administration. The simultaneous treatment with antiandrogens inhibits this growth, depending on the dose.
To examine the test substances, the mice were castrated. The treatment with testosterone propionate (0.03 mg/mouse) and the test substances (formulated 2×daily 30 mg/kg s.c. in benzyl benzoate-castor oil (10:90)) was on the same day. The treatment was carried out over 7 days and at the end of the test, the weights of the seminal vesicles and prostates were determined. The inhibition, in percent, of the seminal vesicle growth was calculated relative to the control groups (with and without testosterone). As a reference substance, cyproterone acetate (30 mg/kg s.c.) was used.

A431 cells = experiment: Model 3: Proliferation of non-prostate cells, A431; type: cell-based, human; settings: 10 μM, 3-day treatment, percent of cell growth of solvent control
Protocol: as §1, §2, §3

HaCaT cells = experiment: Model 3: Proliferation of non-prostate cells, HaCaT; type: cell-based, human; settings: 10 μM, 3-day treatment, percent of cell growth of solvent control
Protocol: as §1, §2, §3

MaTu/Adr cells = experiment: Model 3: Proliferation of non-prostate cells, MaTu/Adr; type: cell-based, human; settings: 10 μM, 3-day treatment, percent of cell growth of solvent control
Protocol: as §1, §2, §3

LNCaP cells = experiment: Model 2: Inhibition of the proliferation of LNCaP cells (crystal violet assay; antagonism with 0.1 nM R1881, agonism without); type: cell-based, human
androgen receptor = target: T1, androgen receptor (Homo sapiens, UniProt P10275, T878A); experiment: cell-based; settings: LNCaP, 48 h
T1 construct: 2*10^6 LNCaP cells in 6 ml of RPMI 1640 without phenol red are grown; endogenous in cells; host or cells: LNCaP (human prostate cell line)
T1 sequence (P10275 1-920 T878A): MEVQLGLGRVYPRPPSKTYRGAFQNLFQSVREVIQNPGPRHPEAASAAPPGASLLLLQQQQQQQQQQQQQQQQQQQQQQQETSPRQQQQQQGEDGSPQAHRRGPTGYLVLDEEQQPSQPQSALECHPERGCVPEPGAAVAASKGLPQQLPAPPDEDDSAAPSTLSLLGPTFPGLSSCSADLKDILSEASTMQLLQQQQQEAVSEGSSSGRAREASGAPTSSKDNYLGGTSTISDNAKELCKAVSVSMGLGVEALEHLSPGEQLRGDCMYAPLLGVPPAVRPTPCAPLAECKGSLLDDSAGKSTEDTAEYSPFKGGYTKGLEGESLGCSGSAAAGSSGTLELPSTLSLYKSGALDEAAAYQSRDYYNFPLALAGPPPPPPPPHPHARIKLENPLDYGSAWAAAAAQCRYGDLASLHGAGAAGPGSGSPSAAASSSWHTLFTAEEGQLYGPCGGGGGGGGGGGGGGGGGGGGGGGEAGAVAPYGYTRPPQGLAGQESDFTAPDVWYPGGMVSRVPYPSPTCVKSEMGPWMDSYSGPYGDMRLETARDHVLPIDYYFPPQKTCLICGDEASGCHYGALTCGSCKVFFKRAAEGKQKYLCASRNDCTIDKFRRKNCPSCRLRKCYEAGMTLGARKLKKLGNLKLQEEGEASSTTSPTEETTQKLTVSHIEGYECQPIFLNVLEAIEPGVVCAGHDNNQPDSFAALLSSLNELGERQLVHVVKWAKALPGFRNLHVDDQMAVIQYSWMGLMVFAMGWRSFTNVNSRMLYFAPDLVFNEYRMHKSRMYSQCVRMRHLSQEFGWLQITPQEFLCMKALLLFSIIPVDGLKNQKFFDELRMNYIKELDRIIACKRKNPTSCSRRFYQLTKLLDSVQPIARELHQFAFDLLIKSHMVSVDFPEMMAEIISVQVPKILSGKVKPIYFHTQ

[1] = listed as invention substance, 30 mg/kg
[2] = listed as substance B, 30 mg/kg

Row | SMILES | Proliferation in the Cell Line MaTu (MaTu cells) | growth inhibition of CWR22 prostate cancers (CWR22 prostate cancers) | growth inhibition of LNCaP prostate cancers (LNCaP prostate cancers) | % Inhibition of the MSB Growth (seminal vesicles) | Proliferation in the Cell Line A431 (A431 cells) | Proliferation in the Cell Line A431 (A431 cells; listed as bicalutamide) | Proliferation in the Cell Line HaCaT (HaCaT cells) | Proliferation in the Cell Line HaCaT (HaCaT cells; listed as bicalutamide) | Proliferation in the Cell Line MaTu/Adr (MaTu/Adr cells) | Proliferation in the Cell Line MaTu/Adr (MaTu/Adr cells; listed as bicalutamide) | inhibition at 1 µM (LNCaP cells; Homo sapiens, LNCaP, LNCaP proliferation, 1 μM substance, compared to cell growth in the presence of 0.1 nM R1881) | IC50 (LNCaP cells; Homo sapiens, LNCaP proliferation in the presence of 0.1 nM R1881, 7-8 days, read-out: IC50 [10^−7 M]) | % Inhibition at 1 μM (LNCaP cells; LNCaP proliferation, 1 μM substance, compared to cell growth in the presence of 0.1 nM R1881) | growth inhibition of CWR22 prostate cancers (CWR22 prostate cancers; [1]) | growth inhibition of CWR22 prostate cancers (CWR22 prostate cancers; [2]) | growth inhibition of LNCaP prostate cancers (LNCaP prostate cancers; [1]) | growth inhibition of LNCaP prostate cancers (LNCaP prostate cancers; [2]) | remaining activity at 1 µM (androgen receptor; read-out: AR Content [%] At 1 μM) | remaining activity at 10 µM (androgen receptor; read-out: AR Content [%] At 10 μM)
1 | CC(O)(CS(=O)(=O)c1ccc(F)cc1)C(=O)Nc1ccc(C#N)c(C(F)(F)F)c1 (centres unmarked) [Bicalutamide, N-[4-cyano-3-(trifluoromethyl)phenyl]-3-[(4-fluorophenyl)sulfonyl]-2-hydroxy-2-methylpropanamide, reference compound] | 97 ± 3% | growth inhibition | growth inhibition | 86% | 89 ± 7% | slight inhibition | 92 ± 3% | slight inhibition | 84 ± 6% | slight inhibition | 85% | 380 nM | 84.6% |  |  |  |  |  | 
2 | CC1=C(CCCCN2CCN(S(C)(=O)=O)CC2)C(=O)N(c2ccc(C#N)c(C(F)(F)F)c2)C1=O [Example 117, 4-[2,5-Dihydro-3-methyl-4-[4-[4-(methylsulfonyl)piperazin-1-yl]butyl]-2,5-dioxo-1H-pyrrol-1-yl]-2-(trifluoromethyl)benzonitrile] | 103 ± 10% |  |  |  | 100 ± 5% |  | 104 ± 6% |  | 94 ± 4% |  |  |  |  | considerable growth inhibition | superior in comparison to treatment with the antiandrogen bicalutamide | considerable growth inhibition | superior in comparison to treatment with the antiandrogen bicalutamide | 57% | 36%
